Here are results for one compound from US20230106102A1, “METHOD OF PRODUCING TRICHODESMA KHASIANUM CLARKE LEAF EXTRACTS AND APPLICATION OF THE SAME” (BAI-CHUNG-REN Foodstuff.Co.Ltd, priority 2021, published 2023).

Holding throughout (type): in vivo
The test system of data set [1] is mice with alcohol-induced liver injury. Nature of the data set: Serum liver function index (AST, ALT) by biochemical automatic analyzer. As to conditions: FIG. 2, extract: TL and TH group, RA group, p<0.05 vs ALD. The procedure: (§1) In the design of this study, male mice of C57BL/6J strain are eight weeks old and are pre-bred for two weeks before starting the experiment to allow the animals to adapt to the environment, and observe whether the animals are abnormal daily. Raising at a relative humidity of 60%, 23±1° C., 12-hour light cycle (8:00-20:00), unlimited feed and water for rodents. The establishment and experimental grouping of liver injury and fatigue model animals. […] The test items of a concentration of lipid in blood are total cholesterol (TC) and triglyceride (TG) in serum, wherein a concentration of the total cholesterol is analyzed by using commercially available biochemical reagents (BXC 0261, Fortress), and a concentration of the biochemical reagents (BXC 0271, Fortress) is analyzed by triglyceride. The test items of a concentration of liver lipid are total cholesterol and triglycerides, wherein a concentration of the total cholesterol of the liver lipid is analyzed by using commercially available biochemical reagents (BXC 0261, Fortress), and a concentration of the biochemical reagents (BXC 0271, Fortress) of the liver lipid is analyzed by triglyceride. A production of lipid peroxide malondialdehyde (MDA) is determined by way of thiobarbituric acid (thiobarbituric acid) color method, wherein the more the product of lipid peroxide malondialdehyde is, the higher the absorbance value produces. […]

The test system is the same in data set [2]. Nature of the data set: Liver pathological section, H&E stain. As to conditions: FIG. 3, extract: TL and TH group, RA group. The procedure: as §1
The test system of data set [3] is Mice with Alcoholic Liver Injury. Nature of the data set: Liver lipid peroxidation (MDA, thiobarbituric acid color method). Conditions: RA group. How it is done:
as §1

Data set [4] has the same test system. Nature of the data set: Liver total cholesterol and triglyceride. Conditions: RA group. How it is done:
(§2) In the design of this study, male mice of C57BL/6J strain are eight weeks old and are pre-bred for two weeks before starting the experiment to allow the animals to adapt to the environment, and observe whether the animals are abnormal daily. Raising at a relative humidity of 60%, 23±1° C., 12-hour light cycle (8:00-20:00), unlimited feed and water for rodents. The establishment and experimental grouping of liver injury and fatigue model animals. The trichodesma khasianum […] extract powders explore the effect of alcohol liquid diet on fatty liver and liver damage in mice, male mice of the C57BL/6J strain of 8 weeks old, are given special diet for experimental animals (Laboratory Rodent Diet) during the 2 week adaptation period. After one week, the body weight reached 20g, and the group is tested and started to be fed with standard alcoholic liquid model feed (Lieber-DeCarli Regular Control (DYET#710027)) or ethanol feed (Ethanol Diet (DYET#710260)), food and water are not restricted. The test is carried out for six weeks. The test substance is given a fixed daily dose by tube feeding. The dosage conversion refers to the US Food and Drug Administration announcement (US FDA, 2005), based on a 60 kg adult, the recommended daily body weight per kg 12.3 times the intake is the dose for mice. The animal experiment is divided into five groups, and each group has 8 mice, so there are […] mice, including normal group (NOR group), alcohol group (ALD group), low dose of the trichodesma khasianum […] extract powder (TL group) and high dose group of the trichodesma khasianum […] extract powder (TH group), and rosmarinic acid group (RA group). […] The test items of a concentration of lipid in blood are total cholesterol (TC) and triglyceride (TG) in serum, wherein a concentration of the total cholesterol is analyzed by using commercially available biochemical reagents (BXC 0261, Fortress), and a concentration of the biochemical reagents (BXC 0271, Fortress) is analyzed by triglyceride. The test items of a concentration of liver lipid are total cholesterol and triglycerides, wherein a concentration of the total cholesterol of the liver lipid is analyzed by using commercially available biochemical reagents (BXC 0261, Fortress), and a concentration of the biochemical reagents (BXC 0271, Fortress) of the liver lipid is analyzed by triglyceride. A production of lipid peroxide malondialdehyde (MDA) is determined by way of thiobarbituric acid (thiobarbituric acid) color method, wherein the more the product of lipid peroxide malondialdehyde is, the higher the absorbance value produces. Therefore, when the sample is capable of reducing the absorbance value of the system, it means that an anti-oxidant effect is formed. […]

A short description of data set [5]: Calorie intake, alcohol intake and body weight of mice fed alcohol liquid diet. Conditions: for Body weight: RA group. How it is done: In the design of this study, male mice of C57BL/6J strain are eight weeks old and are pre-bred for two weeks before starting the experiment to allow the animals to adapt to the environment, and observe whether the animals are abnormal daily. Raising at a relative humidity of 60%, 23±1° C., 12-hour light cycle (8:00-20:00), unlimited feed and water for rodents. The establishment and experimental grouping of liver injury and fatigue model animals. The trichodesma khasianum […] extract powders explore the effect of alcohol liquid diet on fatty liver and liver damage in mice, male mice of the C57BL/6J strain of 8 weeks old, are given special diet for experimental animals (Laboratory Rodent Diet) during the 2 week adaptation period. After one week, the body weight reached 20g, and the group is tested and started to be fed with standard alcoholic liquid model feed (Lieber-DeCarli Regular Control (DYET#710027)) or ethanol feed (Ethanol Diet (DYET#710260)), food and water are not restricted. The test is carried out for six weeks. The test substance is given a fixed daily dose by tube feeding. The dosage conversion refers to the US Food and Drug Administration announcement (US FDA, 2005), based on a 60 kg adult, the recommended daily body weight per kg 12.3 times the intake is the dose for mice. The animal experiment is divided into five groups, and each group has 8 mice, so there are […] mice, including normal group (NOR group), alcohol group (ALD group), low dose of the trichodesma khasianum […] extract powder (TL group) and high dose group of the trichodesma khasianum […] extract powder (TH group), and rosmarinic acid group (RA group). The recommended daily intake of the trichodesma khasianum […] extract powders are 2 g per day. After the animal experiment dose is converted, the one-time dose is […], and the […]-time dose is 0.82 g/kg. After fasting for 12 hours, the experimental animals are sacrificed by carbon dioxide asphyxiation, and blood and liver tissues are collected. After the blood is centrifuged, the serum is collected for biochemical analysis. The surface of the tissue is cleaned with saline solution, dried with a paper towel and weighed, then the tissue of the second largest leaf of the liver is cut and placed in a tissue embedding basin soaked in 10% formalin for paraffin embedding and sectioning so as to have tissue staining analysis. Finally, all remained livers are cleaned internally with 0.9% saline and stored in a -80° C. refrigerator for later use. The aforementioned test items of liver function in serum are aspartate aminotransferase (AST), alanine aminotransferase (ALT) and alkaline phosphatase (ALP) which are tested by using biochemical automatic analyzer (Beckman-700, Fullerton, Calif., USA). The test items of a concentration of lipid in blood are total cholesterol (TC) and triglyceride (TG) in serum, wherein a concentration of the total cholesterol is analyzed by using commercially available biochemical reagents (BXC 0261, Fortress), and a concentration of the biochemical reagents (BXC 0271, Fortress) is analyzed by triglyceride. The test items of a concentration of liver lipid are total cholesterol and triglycerides, wherein a concentration of the total cholesterol of the liver lipid is analyzed by using commercially available biochemical reagents (BXC 0261, Fortress), and a concentration of the biochemical reagents (BXC 0271, Fortress) of the liver lipid is analyzed by triglyceride. A production of lipid peroxide malondialdehyde (MDA) is determined by way of thiobarbituric acid (thiobarbituric acid) color method, wherein the more the product of lipid peroxide malondialdehyde is, the higher the absorbance value produces. Therefore, when the sample is capable of reducing the absorbance value of the system, it means that an anti-oxidant effect is formed. […]

In data set [6] the test system is Mice with Alcoholic Liver Injury. Nature of the data set: Serum total cholesterol and triglyceride. The procedure:
as §2

Data set [7] deals with mice with alcohol-induced liver injury. Nature of the data set: Liver weight / body weight ratio (liver enlargement) in mice fed alcohol liquid diet. Conditions: p<0.05. The procedure: as §1
The mark [8] stands for this setting: extract: TL and TH group, p<0.05.
Where [9] appears, read: RA group, alcohol liquid diet six weeks.
Where [10] appears, read: extract high dose (TH group) or RA group.

Marks after values point to notes of the source that are not given here.

In the case of `O=C(/C=C/c1ccc(O)c(O)c1)O[C@H](Cc1ccc(O)c(O)c1)C(=O)O` [RA, rosmarinic acid], the entries for the “serum alanine transaminase (ALT/GPT) activity induced by alcohol diet” value in data set [1] and in data set [1] (listed as rosmarinic acid) were “significantly reduced” and “significantly reduce”, respectively. In addition, the “liver pathological examination (H&E section)” value in data set [2] is “only a few fat vacuoles and macrophage infiltration around the central vein”; in data set [2] (listed as rosmarinic acid), “improves the effects of alcoholic fatty liver and cell damage”. Also, the “production of liver lipid peroxides induced by alcohol diet” value in data set [3] (extract: TH group, no significant difference (p>0.05)) is reported as “tendency to reduce”. Also, the MDA in data set [3] (liver, alcohol liquid diet six weeks) was 5.00 ± 0.90 ^ab mM/g. Moreover, the Liver total cholesterol in data set [4] (alcohol liquid diet six weeks) is 6.3 ± 0.56 ^b mg/g. In addition, the Liver triglyceride in data set [4] (alcohol liquid diet six weeks) is 8.4 ± 1.68 ^bc mg/g. Besides, the “liver cholesterol concentration in mice” value in data set [4] (setting [8]) is recorded as “significantly reduce”. For the same compound, the “liver triglyceride concentration in mice” value in data set [4] (setting [8]) is “significantly reduce”. Further, the “body weight compared with the alcohol group” value in data set [5] (0 to 6 weeks, alcohol feed diet, p>0.05) was “no significant difference”. Further, the Body weight in data set [5] (Day 0) was 22.3 ± 0.7^a g; in data set [5] (Day 7), 21.7 ± 0.7^a g; in data set [5] (Day 14), 20.6 ± 0.5^a g; in data set [5] (Day 21), 23.3 ± 0.8^a g; in data set [5] (Day 28), 22.3 ± 0.7^a g; in data set [5] (Day 35), 21.6 ± 0.8^a g. In addition, in data set [5] (Day 42), the Body weight is reported as 24.6 ± 1.0^a g. The Serum total cholesterol in data set [6] (setting [9]) is reported as 105.9 ± 9.97 ^ab mg/dL. For the same compound, the Serum triglyceride in data set [6] (setting [9]) is listed as 107.7 ± 23.5 ^b mg/dL. Also, the “serum total cholesterol raised by alcohol diet, compared with ALD group” value in data set [6] (setting [10]) is on record as “significantly reduce”. In addition, in data set [6] (setting [10]), the “serum triglyceride raised by alcohol diet, compared with ALD group” value was “significantly reduce”. For the same compound, in data set [7] (FIG. 1), the “ratio of liver weight/body weight compared with ALD group” value was “significantly lower”. Further, the “alcohol-induced liver enlargement in mice” value in data set [7] (extract: TL and TH group, RA group) is “significantly reduces”.
